# Measurements from patent US8802597B2, “Herbicidal pyrimidines” (E I du Pont de Nemours and Company, priority 2003, dated 2014).
# Like-named read-outs stand apart in the source and are kept apart here.
# Experiments:
# Assay in all cases: Test C pre/postemergence
# Format in all cases: in vivo
# [1] = tested on: crabgrass (Digitaria sanguinalis); details: Digitaria sanguinalis, pre-emergence, Preemergence, scale 0 to 100, read-out: Plant response rating, Crabgrass
# Outline: (§1)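 Injury scored visually 12–14 days after application on 0–100 scale (100 = complete control), relative to controls. Compounds, formulated with surfactant in non-phytotoxic solvent, applied to soil at planting (pre) or to 1- to 4-leaf plants 2–18 cm tall (post) in greenhouse.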
# [2] = tested on: lambsquarters (Chenopodium album); details: Chenopodium album; for pest or weed control at 62 g/ha: 62 g ai/ha; for pest or weed control at 125 g/ha: 125 g ai/ha; for pest or weed control at 250 g/ha: 250 g ai/ha; for pest or weed control at 500 g/ha: 500 g ai/ha
# Outline: as §1
# [3] = tested on: kochia (Kochia scoparia); details: Bassia scoparia; for pest or weed control at 62 g/ha: 62 g ai/ha; for pest or weed control at 125 g/ha: 125 g ai/ha; for pest or weed control at 250 g/ha: 250 g ai/ha; for pest or weed control at 500 g/ha: 500 g ai/ha
# Outline: as §1
# [4] = tested on: goosegrass (Eleusine indica); details: Eleusine indica; for pest or weed control at 62 g/ha: 62 g ai/ha; for pest or weed control at 125 g/ha: 125 g ai/ha; for pest or weed control at 250 g/ha: 250 g ai/ha; for pest or weed control at 500 g/ha: 500 g ai/ha
# Outline: as §1
# [5] = tested on: common ragweed (Ambrosia elatior); details: Ambrosia artemisiifolia; for pest or weed control at 62 g/ha: 62 g ai/ha; for pest or weed control at 125 g/ha: 125 g ai/ha; for pest or weed control at 250 g/ha: 250 g ai/ha; for pest or weed control at 500 g/ha: 500 g ai/ha
# Outline: as §1
# [6] = tested on: pigweed (Amaranthus retroflexus); details: Amaranthus retroflexus; for pest or weed control at 62 g/ha: 62 g ai/ha; for pest or weed control at 125 g/ha: 125 g ai/ha; for pest or weed control at 250 g/ha: 250 g ai/ha; for pest or weed control at 500 g/ha: 500 g ai/ha
# Outline: as §1
# [7] = tested on: common (oilseed) sunflower (Helianthus annuus); details: Helianthus annuus, pre-emergence, Preemergence, read-out: Plant response rating, Sunflower
# Outline: as §1
# [8] = post-emergence, Postemergence, scale 0 to 100 (0 no effect, 100 complete control), read-out: Lambsquarters plant response rating
# [9] = post-emergence, Postemergence, scale 0 to 100, read-out: Plant response rating, Lambsquarters
# [10] = pre-emergence, Preemergence, scale 0 to 100, read-out: Plant response rating, Lambsquarters
# [11] = post-emergence, Postemergence, scale 0 to 100 (0 no effect, 100 complete control), read-out: Kochia plant response rating
# [12] = post-emergence, Postemergence, scale 0 to 100, read-out: Plant response rating, Kochia
# [13] = pre-emergence, Preemergence, scale 0 to 100, read-out: Plant response rating, Kochia
# [14] = post-emergence, Postemergence, scale 0 to 100 (0 no effect, 100 complete control), read-out: Goosegrass plant response rating
# [15] = post-emergence, Postemergence, scale 0 to 100, read-out: Plant response rating, Goosegrass
# [16] = pre-emergence, Preemergence, scale 0 to 100, read-out: Plant response rating, Goosegrass
# [17] = post-emergence, Postemergence, scale 0 to 100 (0 no effect, 100 complete control), read-out: Ragweed plant response rating
# [18] = post-emergence, Postemergence, scale 0 to 100, read-out: Plant response rating, Ragweed
# [19] = pre-emergence, Preemergence, scale 0 to 100, read-out: Plant response rating, Ragweed
# [20] = post-emergence, Postemergence, scale 0 to 100 (0 no effect, 100 complete control), read-out: Pigweed plant response rating
# [21] = post-emergence, Postemergence, scale 0 to 100, read-out: Plant response rating, Pigweed
# [22] = pre-emergence, Preemergence, scale 0 to 100, read-out: Plant response rating, Pigweed
structure (smiles),measurement,setting,value
"CCOC(=O)c1nc(C2CC2)nc(N)c1Cl [Compound 4, ethyl 6-amino-5-chloro-2-cyclopropyl-4-pyrimidinecarboxylate]",pest or weed control at 250 g/ha,[1]; 250 g ai/ha,85%
same,pest or weed control at 500 g/ha,[1]; 500 g ai/ha,95%
same,pest or weed control at 62 g/ha,[2]; [8],100%
same,pest or weed control at 125 g/ha,[2]; [8],100%
same,pest or weed control at 250 g/ha,[2]; [9],100%
same,pest or weed control at 500 g/ha,[2]; [9],100%
same,pest or weed control at 62 g/ha,"[2]; pre-emergence, Preemergence, scale 0 to 100, 0 no effect, 100 complete control, read-out: Plant response rating, Lambsquarters",95%
same,pest or weed control at 125 g/ha,[2]; [10],100%
same,pest or weed control at 250 g/ha,[2]; [10],100%
same,pest or weed control at 500 g/ha,[2]; [10],100%
same,pest or weed control at 62 g/ha,[3]; [11],100%
same,pest or weed control at 125 g/ha,[3]; [11],100%
same,pest or weed control at 250 g/ha,[3]; [12],100%
same,pest or weed control at 500 g/ha,[3]; [12],100%
same,pest or weed control at 62 g/ha,"[3]; pre-emergence, Preemergence, scale 0 to 100, 0 no effect, 100 complete control, read-out: Plant response rating, Kochia",95%
same,pest or weed control at 125 g/ha,[3]; [13],100%
same,pest or weed control at 250 g/ha,[3]; [13],100%
same,pest or weed control at 500 g/ha,[3]; [13],100%
same,pest or weed control at 62 g/ha,[4]; [14],0%
same,pest or weed control at 125 g/ha,[4]; [14],20%
same,pest or weed control at 250 g/ha,[4]; [15],65%
same,pest or weed control at 500 g/ha,[4]; [15],75%
same,pest or weed control at 62 g/ha,"[4]; pre-emergence, Preemergence, scale 0 to 100, 0 no effect, 100 complete control, read-out: Plant response rating, Goosegrass",0%
same,pest or weed control at 125 g/ha,[4]; [16],25%
same,pest or weed control at 250 g/ha,[4]; [16],55%
same,pest or weed control at 500 g/ha,[4]; [16],65%
same,pest or weed control at 62 g/ha,[5]; [17],100%
same,pest or weed control at 125 g/ha,[5]; [17],100%
same,pest or weed control at 250 g/ha,[5]; [18],100%
same,pest or weed control at 500 g/ha,[5]; [18],100%
same,pest or weed control at 62 g/ha,"[5]; pre-emergence, Preemergence, scale 0 to 100, 0 no effect, 100 complete control, read-out: Plant response rating, Ragweed",100%
same,pest or weed control at 125 g/ha,[5]; [19],100%
same,pest or weed control at 250 g/ha,[5]; [19],100%
same,pest or weed control at 500 g/ha,[5]; [19],100%
same,pest or weed control at 62 g/ha,[6]; [20],100%
same,pest or weed control at 125 g/ha,[6]; [20],100%
same,pest or weed control at 250 g/ha,[6]; [21],100%
same,pest or weed control at 500 g/ha,[6]; [21],100%
same,pest or weed control at 62 g/ha,"[6]; pre-emergence, Preemergence, scale 0 to 100, 0 no effect, 100 complete control, read-out: Plant response rating, Pigweed",95%
same,pest or weed control at 125 g/ha,[6]; [22],100%
same,pest or weed control at 250 g/ha,[6]; [22],100%
same,pest or weed control at 500 g/ha,[6]; [22],100%
same,pest or weed control at 62 g/ha,"[7]; 62 g ai/ha, scale 0 to 100, 0 no effect, 100 complete control",100%
same,pest or weed control at 125 g/ha,"[7]; 125 g ai/ha, scale 0 to 100",100%
same,pest or weed control at 250 g/ha,"[7]; 250 g ai/ha, scale 0 to 100",100%
same,pest or weed control at 500 g/ha,"[7]; 500 g ai/ha, scale 0 to 100",100%
